This is an account of results in article PMC4192315, “An Efficient Preparation of Mulberroside A from the Branch Bark of Mulberry and Its Effect on the Inhibition of Tyrosinase Activity” (PLoS ONE, 2014).

“Also recorded” adds a separate entry of the source. Like-named read-outs stand apart in the source and are kept apart here.

For series [1], the target named is monophenolase activity of the mushroom tyrosinase (Agaricus bisporus, UniProt C7FF04). Kind of series: Inhibition of monophenolase activity of mushroom tyrosinase (L-tyrosine as substrate, absorbance at 475 nm). Type of series: biochemical. The following applies: for Inhibition type: Lineweaver-Burk plots; for Inhibition mechanism: plot of V against [E]. On the procedure: The measurement of the sample's inhibitory activity on monophenolase activity was based on 0.5 mmol/L L-tyrosine as the substrate. The total reaction volume was 3.0 mL, which included 2.8 mL substrate solution, 100 µL different concentrations of the sample solutions and 100 µL mushroom tyrosinase solution. The substrate and enzyme solution were dissolved in 50 mmol/L NaH2PO4-Na2HPO4 temporary buffer solution (pH 6.8), with a substrate concentration of 0.5 mmol/L and with an enzyme solution concentration of 1.0 mg/mL. The samples were dissolved in DMSO. First, 100 µL sample solution was added, then 2.8 mL substrate solution, which was pre-incubated at 30°C, was added, and last, 100 µL enzyme solution was added and immediately mixed. The curve was drawn using real-time tracking of the optical density change over time at 475 nm. The measuring instrument was a Hitachi U3000 UV-visible spectrophotometer. The enzyme activity was obtained from the slope of the line. The sample concentration-response curve was plotted as the inhibition rate of samples to the enzyme against the concentrations of effectors.
Sequence of monophenolase activity of the mushroom tyrosinase (C7FF04 1-392): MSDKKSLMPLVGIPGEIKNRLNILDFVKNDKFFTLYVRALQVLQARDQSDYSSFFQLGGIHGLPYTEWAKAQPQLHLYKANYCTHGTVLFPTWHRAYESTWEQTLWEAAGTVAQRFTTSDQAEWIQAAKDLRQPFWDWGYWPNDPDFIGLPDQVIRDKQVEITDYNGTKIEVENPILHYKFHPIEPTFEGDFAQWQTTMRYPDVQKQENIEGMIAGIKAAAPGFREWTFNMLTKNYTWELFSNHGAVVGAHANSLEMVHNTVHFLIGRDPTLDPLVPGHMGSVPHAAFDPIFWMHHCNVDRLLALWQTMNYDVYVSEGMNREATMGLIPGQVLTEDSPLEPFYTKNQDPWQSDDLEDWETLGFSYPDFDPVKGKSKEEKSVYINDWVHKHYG
(§1) The concentration of the substrate was fixed in 3.0 mL of 50 mmol/L NaH2PO4-Na2HPO4 temporary buffer solution (pH 6.8); however, the amount of enzyme was changed to determine the effects of different concentrations of sample on the reaction of mushroom tyrosinase catalysing L-tyrosine or L-DOPA as substrates. Mapping the reaction rate in terms of the amount of enzyme determined whether the inhibition was a reversible reaction.
(§2) And the inhibition type and inhibition constant were determined as follows. The concentration of the enzyme solution was fixed in 3.0 mL of 50 mmol/L NaH2PO4-Na2HPO4 temporary buffer solution (pH 6.8); however, the amount of substrate (L-tyrosine or L-DOPA) was changed to determine the effects of different concentrations of effectors on the reaction of mushroom tyrosinase catalysing the substrate. Using the Lineweaver-Burk method, the curve was plotted as the reciprocal of the reaction rate 1/V against the reciprocal of the substrate 1/[S] to determine the type of inhibition. If the lines intersected on the y-axis, then competitive inhibition was indicated. If the lines intersected on the x-axis, then noncompetitive inhibition was indicated. If the lines intersected in the […] quadrant, then this inhibition was mixed type 1 or 2. If the lines were parallel, then anticompetitive inhibition was indicated. The inhibition constant of the effectors on tyrosinase (KI) and the inhibition constants of the enzyme-substrate complex (KIS) were obtained by a secondary plot of the concentration of the effectors against the slope of the line and the y-axis intercept, respectively.

On the set-up of series [2]: method as in PMID 8951165. Conditions: rats, cited from earlier work.
The test system of series [3] is intestinal bacteria. The following applies: cited from earlier work.
Series [4] deals with mushroom tyrosinase. The following applies: cited from earlier work.
Series [5] addresses tyrosinase. Also on record: method as in PMID 22878208. Conditions: read-out: IC50 of tyrosinase inhibitory activity; cited from earlier work.
Series [6] addresses diphenolase activity of the mushroom tyrosinase (Agaricus bisporus, UniProt C7FF04). The series is described as follows: Inhibition of diphenolase activity of mushroom tyrosinase (L-DOPA as substrate, absorbance at 475 nm). The following applies: for Inhibition type: Lineweaver-Burk plots; for Inhibition mechanism: plot of V against [E]. Type of series: biochemical. On the procedure: The measurement of the sample's inhibitory activity on diphenolase activity was based on 0.5 mmol/L L-DOPA as the substrate. The experimental procedure and calculations were identical to those above-mentioned procedures and calculations.
as §1, §2

The test system of series [7] is mushroom tyrosinase. The series is described as follows: Effect on the enzyme-catalysed process (N-acetyl-L-tyrosine as substrate, HPLC). The following applies: 175.9 µmol/L sample, 0-60 min. Format: biochemical. On the procedure: The effect of the enzyme-catalysed process was determined using a previously described method, with slight modifications. In total, 100 mg N-acetyl-L-tyrosine was dissolved using NaH2PO4-Na2HPO4 temporary buffer solution (pH 6.8), and the volume was set to 100 mL. In total, 0.25 mg/mL enzyme solution and a certain concentration of the sample solution were prepared. All the solutions were filtered using a syringe filter with an aperture of 0.22 µm. The components of the reaction system were as follows: 80 µL N-acetyl-L-tyrosine was mixed with 10 µL sample solution and incubated at 30°C for 5 min, and then 10 µL enzyme solution was added. During the period from 0–60 min, 20 µL mixed solution was injected into the HPLC system every 10 min to detect changes in N-acetyl-L-tyrosine. The HPLC conditions were as follows: a Shimadzu HPLC pump equipped with a Shimadzu 9082652 VP-ODS column (250 mm×4.6 mm). The detection wavelength was 275 nm. The injection volume was 10 µL, and the flow-rate was 1.0 mL/min. The mobile phases were A (water) and B (acetonitrile), which were prepared according to the following linear procedure: 0–8 min, A/B = 85:15 (v/v). All analyses were performed at room temperature.

Series [8] is described as follows: Effect on the non-enzyme-catalysed process (redox reaction of L-DOPA and p-benzoquinone, HPLC). Conditions: HPLC at 245 nm and 280 nm. On the procedure: The effect of the non-enzyme-catalysed process was determined by a previously described method, with slight modifications. The HPLC conditions were as follows: a Shimadzu HPLC pump equipped with a Shimadzu VP-ODS column (250 mm×4.6 mm). The detection wavelengths were 245 nm and 280 nm. The injection volume was 20 µL, and the flow-rate was 1.0 mL/min. The mobile phases were A (0.4% aqueous acetic acid) and B (acetonitrile), which were prepared according to the following linear procedure: 0–10 min, A/B = 90:10 (v/v).

Series [9] relates to mushroom tyrosinase. Kind of series: Effect on the total process of dopachrome synthesis (consecutive UV-Vis spectra, oxidation of L-tyrosine by tyrosinase). Format: biochemical. The following applies: 2.0 µmol/L sample, 0-12 min. As to the method: The effect of tyrosinase (Worthington, USA) on the catalysis of L-tyrosine to dopachrome was determined using the method described by Hiroki, with slight modifications. The total reaction volume was 3 mL. […] The change in the absorption spectrum was determined using a Hitachi U3000 UV-visible spectrophotometer at 30°C isothermal conditions. The scanning wavelength ranged from 250 nm to 600 nm. The scanning frequency was 2 min, and the scanning time was 12 min. Thus, the changes in the absorption spectrum over time were obtained.

For series [10] the following is noted: cited from earlier work.
Series [11] has as its system mushroom tyrosinase. The series is described as follows: Mushroom tyrosinase inhibition (literature values). Format: biochemical. Conditions: monophenolase.
Setting [12] is: MA isolated from ethanol extract of roots of Morus alba, read-out: Tyrosinase inhibitory activity.

Sequence of diphenolase activity of the mushroom tyrosinase (C7FF04 1-392): as above

On to `OC[C@H]1O[C@@H](Oc2cc(O)cc(/C=C/c3ccc(O[C@@H]4O[C@H](CO)[C@@H](O)[C@H](O)[C@H]4O)cc3O)c2)[C@H](O)[C@@H](O)[C@@H]1O` [MA, oxyresveratrol-4-O-β-D-glucopyranosyl-3′-O-β-D-glucopyranoside], for which the Inhibition type result is “mixed type 1” in series [1]; “competitive” in [4] (L-tyrosine and L-DOPA as substrates); “competitive” in [6]. Also, in series [1], the “KIS (inhibition constant of the enzyme-substrate complex)” value came to 0.177 µmol/L. The Inhibition mechanism entry in [1] and in series [6] was “reversible” each time. The Bioavailability result in series [2] (oral administration of mulberry root acetone extract) is reported as “approximately 1%”. Also, the Absorption rate in [2] (oral, most MA transformed to OR and transferred into circulating blood, estimated) was 50%. In series [3], the “Metabolism by intestinal bacteria” value was “rapidly deglucosylated and transformed into OR”. Besides, the IC50 in series [4] (setting [12]) was 53.6 µM; in [5], 42.1 µM. Besides, the “Change in content of N-acetyl-L-tyrosine” value in [7] was “did not change”. Also, the “Effect on redox reaction of L-DOPA and p-benzoquinone (non-enzymatic process)” value in [8] was “not influenced; also recorded: no effect”. The “Effect on formation of dopachrome” value in series [9] is “inhibited the formation of dopachrome”. In series [10], the Permeability result is given as “poor permeability”.
With `Oc1cc(O)cc(/C=C/c2ccc(O)cc2O)c1` [OR, oxyresveratrol], the figures for the Inhibition type result in series [1], in [4] (L-tyrosine as the substrate) and in series [6] were “mixed type 1”, “non-competitive” and “Non-competitive”, respectively. Besides, the “KIS (inhibition constant of the enzyme-substrate complex)” value in [1] came out at 0.662 µmol/L; in series [6] (enzyme-substrate complex), 2.95 µmol/L. The Inhibition mechanism entry was “reversible” in series [1], “reversibly inhibited” in series [4] (L-tyrosine as the substrate) and “reversible” in series [6]. In addition, the IC50 in [4] (setting [12]) was 0.49 µM; in [4] (depending on the assay conditions, read-out: IC50), 0.46 to 1.1 µM. Besides, the “Difference in IC50 between literature and this paper” value in series [11] (compared with ref 8) was 8 fold; in series [11] (printed as lower than our experiment, compared with ref 6), “approximately 4 fold”. In addition, the “Change in content of N-acetyl-L-tyrosine” value in [7] is given as “did not change”. Moreover, the “Effect on redox reaction of L-DOPA and p-benzoquinone (non-enzymatic process)” value in [8] is given as “not influenced”. Besides, in [9], the “Effect on formation of dopachrome” value is “inhibited the formation of dopachrome”.
